In patent US5153183A, “Methylenediphosphonic acid compounds and methods of use for the treatment of rheumatism and osteophorosis” (Toray Industries, Inc., priority 1989, dated 1992):

What was measured:
Lewis female rat = assay: Adjuvant arthritis test; format: in vivo; details: 50 mg/kg oral daily, 8th to 21st day after adjuvant injection, 6 cases; for Edema inhibiting rate against control group, +14 day, Left / Edema inhibiting rate against control group, +21 day, Left: left hindpaw (injected); for Edema inhibiting rate against control group, +14 day, Left / Edema inhibiting rate against control group, +14 day, Right: day 14; for Edema inhibiting rate against control group, +21 day, Left / Edema inhibiting rate against control group, +21 day, Right: day 21; for Edema inhibiting rate against control group, +14 day, Right / Edema inhibiting rate against control group, +21 day, Right: right hindpaw; for Zonal bone damage inhibiting rate against control group, +22 day: soft X-ray of hindlegs, day 22
Protocol: When a Mycobacterium butyricum adjuvant is injected into a rat, there occurs polyarthritis similar to human rheumatoid arthritis. Using such an adjuvant arthritis model, the anti-inflammatory and anti-rheumatic effects of the compounds of the present invention and the reference were examined according to the following procedure.
0.1 mg of dry dead Mycobacterium butyricum was suspended in 0.1 ml of liquid paraffin, and the suspension was injected into the skin of the sole of the left hindpaw of a Lewis female rat, 7-weeks old. The compounds obtained in Examples 2 and 4 and Reference were respectively dissolved in sterilized distilled water and orally administered at a dose of 50 mg per kg of body weight every day for two weeks from the 8th to 21st day after adjuvant injection. The volumes of the left and right hindpaws were measured. Edema density was calculated according to the formula [formula] and the Edema inhibiting rate was obtained according to the formula [formula] with the results shown in Table 1.
On the 22nd day, the rats were sacrificed, and soft X-ray photos of the left and right hind-legs were taken, and, based on the soft X-ray photos, the extent of bone damage at 5 zones on the left and right hindlegs was evaluated in points of 5 ranks, and the total points were taken as the zonal bone damage index. Further, the zonal bone damage inhibiting rate was calculated according to the formula [formula] with the results shown in Table 1.
The results thus obtained had ** noted for those which were significant according to the Student t-test and Tukey multiple comparison method with a perilous rate p<0.02 against the control group having only the sterilized distilled water administered and * noted for those which were significant with a perilous rate p<0.05.

osteoclasts = assay: Bone resorption inhibition test; format: cell-based; details: Mus musculus, Osteoclast, 120 h, active-type vitamin D3 (10^-10 M), ivory lamella, 5 days, read-out: Bone resorption inhibiting rate against control group
Protocol: With an osteoclast fraction prepared from the hindleg of a mouse placed on a lamella of ivory and stimulated by active-type vitamin D3 there is an resorption lacuna produced on the surface of ivory due to the absorption activity of the osteoclast. Using this absorption model of the bone, the bone resorption inhibiting effect of the compound of the invention was examined according to the following procedure.
5 μl of a suspension of osteoclasts prepared from the hindleg of a mouse was placed on a lamella of ivory and cultured in 500 μl of a 5% calf serum α-added MEM medium containing active-type vitamin D3 (10^-10 M) and the compound of the present invention ([…] or 10^-5 M) for 5 days. After culturing, the osteoclasts were removed from the ivory lamella, and the ivory was stained. The total area of resorption lacunae which became obvious by staining was calculated through image analysis. The bone absorption inhibiting rate was calculated by the formula [formula]

Acute toxicity test = format: in vivo, rat; details: rat, in vivo, iv, 14 days, distilled water
Protocol: (§1) Using female and male SD rats (5-week age), 6 rats per group, and a 10% aqueous solution of gum arabic for oral administration, and distilled water for intravenous administration as a solvent for the compound to be tested, mortality, during 14 days after administration were recorded, and the LD50 values were calculated according to the Miller and Tainter Method (1944).

SD rats = assay: Acute toxicity test; format: in vivo, rat; details: 14 days, 20160 min
Protocol: as §1

[1] = Oral, Female SD rats, 10% gum arabic
[2] = Oral, Male SD rats, 10% gum arabic

SMILES	Edema inhibiting rate against control group, +14 day, Left (Lewis female rat)	Edema inhibiting rate against control group, +21 day, Left (Lewis female rat)	Edema inhibiting rate against control group, +14 day, Right (Lewis female rat)	Edema inhibiting rate against control group, +21 day, Right (Lewis female rat)	Zonal bone damage inhibiting rate against control group, +22 day (Lewis female rat)	inhibition at 10 µM (osteoclasts; 10^-5 M)	inhibition at 1 µM (osteoclasts; 10^-6 M)	LD50 at 336 h (Acute toxicity test; Female SD rats)	LD50 at 336 h (Acute toxicity test; Male SD rats)	LD50 Values (SD rats; [1])	LD50 Values (SD rats; [2])	LD50 Values (SD rats; Intravenous, Female SD rats, distilled water)	LD50 Values (SD rats; Intravenous, Male SD rats, distilled water)
CC(C)(C)c1cc(SC(P(=O)(O)O)P(=O)(O)O)cc(C(C)(C)C)c1O [Example 2, (3,5-di-t-butyl-4-hydroxyphenylthio)methylenediphosphonic acid]	29.2%	33.8%	39.7%	30.4%	32.5%	86%	48%	29.8 mg/kg	45.2 mg/kg	616 mg/kg	652 mg/kg	–	–
CC(C)(C)c1cc(CC(P(=O)(O)O)P(=O)(O)O)cc(C(C)(C)C)c1O [Example 4, 2-(3,5-di-t-butyl-4-hydroxyphenyl)ethylidene-1,1-di-phosphonic acid]	2.6%	9.7%	31.6%	21.6%	29.4%	–	–	–	–	–	–	–	–
CC(C)(C)c1cc(SC(P(=O)(O)O)P(=O)(O)O)cc(C(C)(C)C)c1O [Example 8, Disodium(3,5-di-t-butyl-4-hydroxyphenylthio)methylenediphosphonate]	–	–	–	–	–	–	–	–	–	1770 mg/kg	1871 mg/kg	35.7 mg/kg	48.2 mg/kg
O=P(O)(O)C(Cc1ccc(O)cc1)P(=O)(O)O [Reference compound, 2-(4-hydroxyphenyl)ethylidene-1,1-diphosphonic acid, reference compound]	4.4%	0.9%	7.9%	6.9%	0%	–	–	–	–	–	–	–	–
